Measured values: patent US8808771B2, “Active ingredient delivery system with an amorphous metal salt as carrier” (Firmenich SA, priority 2006, dated 2014)

Assay: Extinction coefficient (phenol band at 280 nm) before and after addition of ACAP, entrapment of naringin
Format: physicochemical
Conditions: for E-value (extinction coefficient, phenol band at 280 nm): diluted 1:12 with 30 wt % ethanolic solution, slightly acidic
Procedure: A conventional double jet precipitation process, which can be operated both batch wise and in a continuous mode, was used. The active ingredient (Naringin) was firstly dissolved in ethanol or ethanol/water medium. A first stream comprising Ca^2+ ions (provided as calcium chloride solution) and a second stream comprising PO4^3− ions (provided as sodium phosphate), were prepared in order to give a resulting carrier component comprising ACAP solution at 10 g/L. A third stream comprising a standard solution of 2 g/L of naringin in 30% ethanol solution was then prepared.
The three streams were jetted separately into a mixing chamber using a standard y-mixer with the reaction being stopped for equal volumes, i.e. 10 ml Ca^2+ stock solution plus 10 ml PO4^3− stock solution into 10 ml naringin. The extinction coefficient (strong phenol band at 280 nm, slightly acidic conditions) was determined after standardized dilution with 30 wt % ethanolic solution (1:12) and was compared before and after the addition of the ACAP.

E-value (extinction coefficient, phenol band at 280 nm) (after addition of ACAP): 1.5 | E-value (extinction coefficient, phenol band at 280 nm) (before addition of ACAP): 3.75 | naringin entrapped by the ACAP (calculated from the lowering of the E-value): at least 70%
SMILES: C[C@@H]1O[C@@H](O[C@H]2[C@H](Oc3cc(O)c4c(c3)O[C@H](c3ccc(O)cc3)CC4=O)O[C@H](CO)[C@@H](O)[C@@H]2O)[C@H](O)[C@H](O)[C@H]1O [naringin, Naringin]
